These results are taken from US12435095B2, “Substituted morpholines as ATR kinase inhibitors” (Shanghai Annova Biotechnology Co., Ltd., priority 2021, dated 2025).

In general, pIC50 refers to the IC50 on a negative log10 scale, so that one unit is a factor of ten.

SMILES strings stand for the structures. pIC50: −log10 of the molar value. Like-named read-outs stand apart in the source and are kept apart here.

This experiment relates to human colon cancer LoVo cells. Put plainly: Cell proliferation inhibition assay (CellTiter-Glo). The format is cell-based. To be noted: for pIC50: read-out: LoVo IC50. From the text: Experimental method: A CellTiter-Glo cell viability assay kit was used to test the inhibitory effect of the compounds on the in vitro proliferation of human colon cancer LoVo cells.
Experimental materials: LoVo cells (ATCC, Cat. No. CCL-29); F-12K medium (Invitrogen, Cat. No. 21127-022); fetal bovine serum (Biological Industries, Cat. No. 04-002-1A); GlutaMAX (Gibco, Cat. No. 35050-061); 0.25% trypsin-EDTA (Invitrogen, Cat. No. 25200-072); CellTiter-Glo kit (Promega, Cat. No. G7558).
Experimental procedure: (1) F-12K medium, fetal bovine serum and GlutaMAX were formulated into a complete medium for culturing LoVo cells; (2) well-grown LoVo cells were taken, digested with trypsin and transferred to a centrifuge tube, and centrifuged; the supernatant was discarded, and cells were resuspended by adding a fresh medium and counted by a Vi-CELL XR cell counter; the density of the cell suspension was adjusted to 25,000 to 30,000 cells/mL, and the cell suspension was added at 100 μL/well in a 96-well cell culture plate, while a blank control group was set up with no cells added, and the cell culture plate was incubated in a carbon dioxide incubator overnight; (3) a DMSO solution of the compound to be tested was dispensed into the above 96-well cell culture plate using an HP D300 ultra-micro sampler, with 0.5 μL of the solution per well and 10 concentrations for each compound (3× dilution), while a DMSO control group with no compound added was set up, and the plate was continued to be incubated in a carbon dioxide incubator for 96 hours; (4) the cell culture plate was taken out and equilibrated to room temperature, with 100 μL of a CellTiter-Glo reagent added to each well, and then the plate was kept away from light, shaken for 10 minutes and then incubated for 10 minutes; (5) the cell culture plate was put into EnSpire for plate reading, and the luminescence value RLU was recorded.
Data processing: (1) The inhibition rate was calculated from the luminescence values: “RLUDMSO” is the luminescence value of the DMSO control group without compound, “RLUblank” is the luminescence value of the blank control group without cells, and “RLUcompound” is the luminescence value of the compound test group, and the inhibition rate=[1−(RLUcompound−RLUblank)/(RLUDMSO−RLUblank)]×100%; (2) with curve fitting using the Excel add-on XLFit, the IC50 value was calculated.

The mark [1] stands for this setting: Homo sapiens, LoVo cells, 96 hours, CellTiter-Glo.
Where [2] appears, read: LoVo cells, 96 hours, CellTiter-Glo.

As to `C[C@@H]1COCCN1c1nc(-c2cc(Cl)cc3[nH]ccc23)nc2c1ccn2S(C)(=O)=O` [Compound 31, (R)-4-(2-(6-chloro-1H-indol-4-yl)-7-(methylsulfonyl)-7H-pyrrolo[2,3-d]pyrimidin-4-yl)-3-methylmorpholine], the pIC50 under setting [1] was 6.24. Further, under setting [2], the “Max Inhibition” value turned out to be 93%.
The matching figures for `COc1cc(-c2nc(N3CCOC[C@H]3C)c3ccn(S(C)(=O)=O)c3n2)c2cc[nH]c2c1` [Compound 32, (R)-4-(2-(6-methoxy-1H-indol-4-yl)-7-(methylsulfonyl)-7H-pyrrolo[2,3-d]pyrimidin-4-yl)-3-methylmorpholine]: 6.47 and 95%.
On to `CCS(=O)(=O)n1ccc2c(N3CCOC[C@H]3C)nc(-c3ccnc4[nH]ccc34)nc21` [Compound 33, (R)-4-(7-(ethylsulfonyl)-2-(1H-pyrrolo[2,3-b]pyridin-4-yl)-7H-pyrrolo[2,3-d]pyrimidin-4-yl)-3-methylmorpholine], for which, under setting [1], the pIC50 was 6.54. The “Max Inhibition” value under setting [2] turned out to be 92%.
Take `C[C@@H]1COCCN1c1nc(-c2ccnc3[nH]ccc23)nc2c1ccn2S(=O)(=O)N(C)C` [Compound 34, (R)—N,N-dimethyl-4-(3-methylmorpholinyl)-2-(1H-pyrrolo[2,3-b]pyridin-4-yl)-7H-pyrrolo[2,3-d]pyrimidine-7-sulfamide]: the pIC50 (Homo sapiens, LoVo, 96 h) is 6.54. In addition, the Emax (Homo sapiens, LoVo, 96 h, read-out: Max Inhibition) amounted to 93%.
